Test results: PubChem BioAssay (NCI)
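48-hour exposure; five concentrations; linearly interpolated endpoints. TGI denotes the concentration required for complete inhibition of growth.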

Columns and labels:
Assay in all cases: inhibition of tumour cell growth, NCI panel, 48 h
786-0 renal = test system: 786-0 renal
A498 renal = test system: A498 renal
A549 NSCLC = test system: A549 NSCLC
ACHN renal = test system: ACHN renal
BT-549 breast = test system: BT-549 breast
CAKI-1 renal = test system: CAKI-1 renal
COLO 205 colon = test system: COLO 205 colon
DU-145 prostate = test system: DU-145 prostate
EKVX NSCLC = test system: EKVX NSCLC
HCC-2998 colon = test system: HCC-2998 colon
HCT-116 colon = test system: HCT-116 colon
HCT-15 colon = test system: HCT-15 colon
HL-60(TB) leukemia = test system: HL-60(TB) leukemia
HOP-62 NSCLC = test system: HOP-62 NSCLC
HOP-92 NSCLC = test system: HOP-92 NSCLC
HS 578T breast = test system: HS 578T breast
HT29 colon = test system: HT29 colon
IGROV1 ovarian = test system: IGROV1 ovarian
K-562 leukemia = test system: K-562 leukemia
KM12 colon = test system: KM12 colon
LOX IMVI melanoma = test system: LOX IMVI melanoma
M14 melanoma = test system: M14 melanoma
MALME-3M melanoma = test system: MALME-3M melanoma
MCF7 breast = test system: MCF7 breast
MDA-MB-231 breast = test system: MDA-MB-231 breast
MDA-MB-435 = test system: MDA-MB-435
MDA-N = test system: MDA-N
MOLT-4 leukemia = test system: MOLT-4 leukemia
NCI-H226 lung = test system: NCI-H226 lung
NCI-H23 lung = test system: NCI-H23 lung
NCI-H460 lung = test system: NCI-H460 lung
NCI-H522 lung = test system: NCI-H522 lung
NCI/ADR-RES ovarian = test system: NCI/ADR-RES ovarian
OVCAR-3 ovarian = test system: OVCAR-3 ovarian
OVCAR-4 ovarian = test system: OVCAR-4 ovarian
OVCAR-5 ovarian = test system: OVCAR-5 ovarian
OVCAR-8 ovarian = test system: OVCAR-8 ovarian
PC-3 prostate = test system: PC-3 prostate
RPMI-8226 leukemia = test system: RPMI-8226 leukemia
RXF 393 renal = test system: RXF 393 renal
SF-268 CNS = test system: SF-268 CNS
SF-295 CNS = test system: SF-295 CNS
SF-539 CNS = test system: SF-539 CNS
SK-MEL-2 melanoma = test system: SK-MEL-2 melanoma
SK-MEL-28 melanoma = test system: SK-MEL-28 melanoma
SK-MEL-5 melanoma = test system: SK-MEL-5 melanoma
SN12C renal = test system: SN12C renal
SNB-19 CNS = test system: SNB-19 CNS
SR leukemia = test system: SR leukemia
SW-620 colon = test system: SW-620 colon
TK-10 renal = test system: TK-10 renal
U251 CNS = test system: U251 CNS
UACC-257 melanoma = test system: UACC-257 melanoma
UACC-62 melanoma = test system: UACC-62 melanoma
UO-31 renal = test system: UO-31 renal
CCRF-CEM leukemia = test system: CCRF-CEM leukemia
SK-OV-3 ovarian = test system: SK-OV-3 ovarian
SNB-75 CNS = test system: SNB-75 CNS

## C=C(C)C[C@H](Sc1nc2ccccc2s1)[C@H](C)O
786-0 renal
  TGI: > 100 µM
A498 renal
  TGI: 79 µM
A549 NSCLC
  TGI: > 100 µM
ACHN renal
  TGI: > 100 µM
BT-549 breast
  TGI: > 100 µM
CAKI-1 renal
  TGI: > 100 µM
COLO 205 colon
  TGI: > 100 µM
DU-145 prostate
  TGI: > 100 µM
EKVX NSCLC
  TGI: > 100 µM
HCC-2998 colon
  TGI: > 100 µM
HCT-116 colon
  TGI: > 100 µM
HCT-15 colon
  TGI: > 100 µM
HL-60(TB) leukemia
  TGI: 44.9 µM
HOP-62 NSCLC
  TGI: > 100 µM
HOP-92 NSCLC
  TGI: > 100 µM
HS 578T breast
  TGI: > 100 µM
HT29 colon
  TGI: > 100 µM
IGROV1 ovarian
  TGI: > 100 µM
K-562 leukemia
  TGI: > 100 µM
KM12 colon
  TGI: > 100 µM
LOX IMVI melanoma
  TGI: > 100 µM
M14 melanoma
  TGI: > 100 µM
MALME-3M melanoma
  TGI: 72 µM
MCF7 breast
  TGI: > 100 µM
MDA-MB-231 breast
  TGI: > 100 µM
MDA-MB-435
  TGI: > 100 µM
MDA-N
  TGI: > 100 µM
MOLT-4 leukemia
  TGI: 43 µM
NCI-H226 lung
  TGI: 74.1 µM
NCI-H23 lung
  TGI: > 100 µM
NCI-H460 lung
  TGI: > 100 µM
NCI-H522 lung
  TGI: 81.9 µM
NCI/ADR-RES ovarian
  TGI: > 100 µM
OVCAR-3 ovarian
  TGI: 75.7 µM
OVCAR-4 ovarian
  TGI: > 100 µM
OVCAR-5 ovarian
  TGI: > 100 µM
OVCAR-8 ovarian
  TGI: > 100 µM
PC-3 prostate
  TGI: 63.8 µM
RPMI-8226 leukemia
  TGI: 98.4 µM
RXF 393 renal
  TGI: > 100 µM
SF-268 CNS
  TGI: > 100 µM
SF-295 CNS
  TGI: > 100 µM
SF-539 CNS
  TGI: > 100 µM
SK-MEL-2 melanoma
  TGI: 69.9 µM
SK-MEL-28 melanoma
  TGI: > 100 µM
SK-MEL-5 melanoma
  TGI: 36.8 µM
SN12C renal
  TGI: > 100 µM
SNB-19 CNS
  TGI: > 100 µM
SR leukemia
  TGI: > 100 µM
SW-620 colon
  TGI: > 100 µM
TK-10 renal
  TGI: > 100 µM
U251 CNS
  TGI: > 100 µM
UACC-257 melanoma
  TGI: > 100 µM
UACC-62 melanoma
  TGI: > 100 µM
UO-31 renal
  TGI: > 100 µM

## O=c1cc(NNc2ccc3ccccc3c2)[nH]c(=S)[nH]1
786-0 renal
  TGI: 39.6 µM
A498 renal
  TGI: > 100 µM
A549 NSCLC
  TGI: > 100 µM
ACHN renal
  TGI: > 100 µM
BT-549 breast
  TGI: > 100 µM
COLO 205 colon
  TGI: 46 µM
DU-145 prostate
  TGI: > 100 µM
EKVX NSCLC
  TGI: > 100 µM
HCC-2998 colon
  TGI: > 100 µM
HCT-116 colon
  TGI: > 100 µM
HCT-15 colon
  TGI: 34.1 µM
HL-60(TB) leukemia
  TGI: 69.5 µM
HOP-62 NSCLC
  TGI: 98.3 µM
HOP-92 NSCLC
  TGI: 62.1 µM
HS 578T breast
  TGI: > 100 µM
HT29 colon
  TGI: 30 µM
IGROV1 ovarian
  TGI: > 100 µM
K-562 leukemia
  TGI: 41.1 µM
KM12 colon
  TGI: 38.3 µM
LOX IMVI melanoma
  TGI: 26 µM
M14 melanoma
  TGI: > 100 µM
MALME-3M melanoma
  TGI: > 100 µM
MCF7 breast
  TGI: 66.6 µM
MDA-MB-231 breast
  TGI: > 100 µM
MDA-MB-435
  TGI: > 100 µM
MDA-N
  TGI: > 100 µM
NCI-H226 lung
  TGI: > 100 µM
NCI-H23 lung
  TGI: > 100 µM
NCI-H460 lung
  TGI: > 100 µM
NCI/ADR-RES ovarian
  TGI: > 100 µM
OVCAR-3 ovarian
  TGI: 34.1 µM
OVCAR-4 ovarian
  TGI: > 100 µM
OVCAR-5 ovarian
  TGI: > 100 µM
OVCAR-8 ovarian
  TGI: > 100 µM
PC-3 prostate
  TGI: 46.4 µM
RPMI-8226 leukemia
  TGI: > 100 µM
SF-268 CNS
  TGI: 80 µM
SF-295 CNS
  TGI: > 100 µM
SF-539 CNS
  TGI: 82.1 µM
SK-MEL-28 melanoma
  TGI: > 100 µM
SK-MEL-5 melanoma
  TGI: > 100 µM
SN12C renal
  TGI: > 100 µM
SNB-19 CNS
  TGI: > 100 µM
SR leukemia
  TGI: > 100 µM
SW-620 colon
  TGI: 36.8 µM
TK-10 renal
  TGI: > 100 µM
U251 CNS
  TGI: > 100 µM
UACC-257 melanoma
  TGI: > 100 µM
UO-31 renal
  TGI: > 100 µM

## O=C(/C=C\c1ccc(-c2ccccc2)cc1)c1cccs1
786-0 renal
  TGI: > 100 µM
A498 renal
  TGI: > 27.1 µM
A549 NSCLC
  TGI: > 100 µM
ACHN renal
  TGI: > 100 µM
BT-549 breast
  TGI: > 100 µM
CAKI-1 renal
  TGI: > 100 µM
CCRF-CEM leukemia
  TGI: 12.5 µM
COLO 205 colon
  TGI: > 100 µM
DU-145 prostate
  TGI: > 100 µM
EKVX NSCLC
  TGI: > 100 µM
HCC-2998 colon
  TGI: > 100 µM
HCT-116 colon
  TGI: > 100 µM
HCT-15 colon
  TGI: > 100 µM
HL-60(TB) leukemia
  TGI: > 31 µM
HOP-62 NSCLC
  TGI: > 100 µM
HOP-92 NSCLC
  TGI: > 100 µM
HS 578T breast
  TGI: > 81 µM
HT29 colon
  TGI: > 50.3 µM
IGROV1 ovarian
  TGI: > 94.3 µM
K-562 leukemia
  TGI: > 100 µM
KM12 colon
  TGI: > 100 µM
LOX IMVI melanoma
  TGI: > 100 µM
M14 melanoma
  TGI: > 100 µM
MCF7 breast
  TGI: > 100 µM
MDA-MB-231 breast
  TGI: > 100 µM
MDA-MB-435
  TGI: > 100 µM
MDA-N
  TGI: > 100 µM
MOLT-4 leukemia
  TGI: > 28.1 µM
NCI-H226 lung
  TGI: > 100 µM
NCI-H23 lung
  TGI: > 100 µM
NCI-H460 lung
  TGI: > 100 µM
NCI-H522 lung
  TGI: > 30.4 µM
NCI/ADR-RES ovarian
  TGI: > 100 µM
OVCAR-3 ovarian
  TGI: > 100 µM
OVCAR-4 ovarian
  TGI: > 100 µM
OVCAR-5 ovarian
  TGI: > 100 µM
OVCAR-8 ovarian
  TGI: > 100 µM
PC-3 prostate
  TGI: > 100 µM
RPMI-8226 leukemia
  TGI: > 100 µM
RXF 393 renal
  TGI: 46.4 µM
SF-268 CNS
  TGI: > 75 µM
SF-295 CNS
  TGI: > 100 µM
SF-539 CNS
  TGI: > 100 µM
SK-MEL-2 melanoma
  TGI: > 100 µM
SK-MEL-28 melanoma
  TGI: > 100 µM
SK-MEL-5 melanoma
  TGI: > 100 µM
SK-OV-3 ovarian
  TGI: > 100 µM
SN12C renal
  TGI: > 100 µM
SNB-19 CNS
  TGI: > 100 µM
SNB-75 CNS
  TGI: > 60.4 µM
SR leukemia
  TGI: > 100 µM
SW-620 colon
  TGI: > 100 µM
TK-10 renal
  TGI: > 100 µM
U251 CNS
  TGI: > 100 µM
UACC-257 melanoma
  TGI: > 100 µM
UACC-62 melanoma
  TGI: > 100 µM
UO-31 renal
  TGI: > 100 µM
